This passage reports IC50 results from patent US20230183292A1, “IMMUNOMODULATORS” (priority 2020, published 2023).

The target in the experiment is T1, PD-1/PD-L1 (Homo sapiens, UniProt Q9NZQ7).
T1 construct: TVMV protease site (C); made in house; host or cells: HEK293T cells
The experiment in a line: PD-1/PD-L1 Homogenous Time-Resolved Fluorescence (HTRF) binding assay. The conditions noted are these: PD-L1-His 10 nM, PD-1-Ig 20 nM; read-out: HTRF IC50. The text has this: The ability of the compounds of formula (I) to bind to PD-L1 was investigated using a PD-1/PD-L1 Homogenous Time-Resolved Fluorescence (HTRF) binding assay.
The interaction of PD-1 and PD-L1 can be assessed using soluble, purified preparations of the extracellular domains of the two proteins. The PD-1 and PD-L1 protein extracellular domains were expressed as fusion proteins with detection tags, for PD-1, the tag was the Fc portion of Immunoglobulin (PD-1-Ig) and for PD-L1 it was the 6 histidine motif (PD-L1-His). All binding studies were performed in an HTRF assay buffer consisting of dPBS supplemented with 0.1% […] bovine serum albumin and 0.05% (v/v) Tween-20. For the h/PD-L1-His binding assay, inhibitors were pre-incubated with PD-L1-His (10 nM final) for 15 m in 4 μl of assay buffer, followed by addition of PD-1-Ig (20 nM final) in 1 μl of assay buffer and further incubation for 15 m. HTRF detection was achieved using europium crypate-labeled anti-Ig (1 nM final) and allophycocyanin (APC) labeled anti-His (20 nM final). Antibodies were diluted in HTRF detection buffer and 5 μl was dispensed on top of the binding reaction. The reaction mixture was allowed to equilibrate for 30 minutes and the resulting signal (665 nm/620 nm ratio) was obtained using an EnVision fluorometer. Additional binding assays were established between the human proteins PD-1-Ig/PD-L2-His (20 & 5 nM, respectively) and CD80-His/PD-L1-Ig (100 & 10 nM, respectively).
Recombinant Proteins: Human PD-1 (25-167) with a C-terminal human Fc domain of immunoglobulin G (Ig) epitope tag [hPD-1 (25-167)-3S-IG] and human PD-L1 (18-239) with a C-terminal His epitope tag [hPD-L1(18-239)-TVMV-His] were expressed in HEK293T cells and purified sequentially by ProteinA affinity chromatography and size exclusion chromatography. Human PD-L2-His and CD80-His was obtained through commercial sources.
Table 1 lists the IC50 values for representative examples of this disclosure measured in the PD-1/PD-L1 Homogenous Time-Resolved Fluorescence (HTRF) binding assay.
Background: Time-resolved FRET reads energy transfer from a long-lived donor to a nearby acceptor.

Starred links: 1 amine or outer side, 2 acyl side, 3 side chain; linkers in the order of their positions; H or OH if unused. Positions of bridges follow the written chain, without caps; N, C: chain ends. Non-standard residues stand in square brackets, D forms with d. Residues, ends and D or L forms follow the SMILES beside them. Groups on a side chain read outwards from the residue. *: point of attachment. Chenodeoxycholyl = C[C@H](CCC(=O)*)[C@H]1CC[C@H]2[C@@H]3[C@H](O)C[C@@H]4C[C@H](O)CC[C@]4(C)[C@H]3CC[C@]12C; Ursodeoxycholyl = C[C@H](CCC(=O)*)[C@H]1CC[C@H]2[C@@H]3[C@@H](O)C[C@@H]4C[C@H](O)CC[C@]4(C)[C@H]3CC[C@]12C; Cholyl = C[C@H](CCC(=O)*)[C@H]1CC[C@H]2[C@@H]3[C@H](O)C[C@@H]4C[C@H](O)CC[C@]4(C)[C@H]3C[C@H](O)[C@]12C; Deoxycholoyl = C[C@H](CCC(=O)*)[C@H]1CC[C@H]2[C@@H]3CC[C@@H]4C[C@H](O)CC[C@]4(C)[C@H]3C[C@H](O)[C@]12C; Lithocholoyl = C[C@H](CCC(=O)*)[C@H]1CC[C@H]2[C@@H]3CC[C@@H]4C[C@H](O)CC[C@]4(C)[C@H]3CC[C@]12C; X36 = C[C@H](CCC(=O)*)[C@H]1CC[C@H]2[C@@H]3CC[C@@H]4C[C@H](O)CC[C@]4(C)[C@H]3CC(O)[C@]12C; Trp(1-CH2CO2Me) = COC(=O)Cn1cc(C[C@H](N)C(=O)O)c2ccccc21; X29 = CN(C)C(=O)Cn1cc(C[C@H](N[*:1])C(=O)[*:2])c2ccccc21; Trp(1-CH2COOH) = N[C@@H](Cc1cn(CC(=O)O)c2ccccc12)C(=O)O; Hyp = O=C(O)[C@@H]1C[C@@H](O)CN1; NMeNle = CCCC[C@H](NC)C(=O)O; NMeA = CN[C@@H](C)C(=O)O; Dab = NCC[C@H](N)C(=O)O; Dap = NC[C@H](N)C(=O)O

T1 sequence (Q9NZQ7 18-239): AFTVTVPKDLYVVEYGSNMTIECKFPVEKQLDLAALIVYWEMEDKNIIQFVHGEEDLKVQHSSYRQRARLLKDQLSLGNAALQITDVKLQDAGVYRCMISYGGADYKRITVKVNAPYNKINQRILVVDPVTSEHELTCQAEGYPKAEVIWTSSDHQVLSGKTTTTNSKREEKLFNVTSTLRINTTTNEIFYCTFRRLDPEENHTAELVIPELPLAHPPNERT

For orientation: IC50 means the midpoint of a concentration-inhibition curve. On to `CCCC[C@H]1C(=O)N(C)[C@@H](CCCC)C(=O)N[C@@H](CC(C)C)C(=O)N[C@H](C(=O)NCC(N)=O)CSCC(=O)N[C@@H](Cc2ccc(O)cc2)C(=O)N(C)[C@@H](C)C(=O)N[C@@H](CC(N)=O)C(=O)N2CCC[C@H]2C(=O)N[C@@H](CNC(=O)CC[C@@H](C)[C@H]2CC[C@H]3[C@@H]4CC[C@@H]5C[C@H](O)CC[C@]5(C)[C@H]4C[C@H](O)[C@]23C)C(=O)N[C@@H](CC(C)C)C(=O)N2C[C@H](O)C[C@H]2C(=O)N[C@@H](Cc2c[nH]c3ccccc23)C(=O)N[C@@H](CCNC(=O)CC[C@@H](C)[C@H]2CC[C@H]3[C@@H]4[C@H](O)C[C@@H]5C[C@H](O)CC[C@]5(C)[C@H]4CC[C@]23C)C(=O)N[C@@H](Cc2cn(CC(=O)OC)c3ccccc23)C(=O)N1C` [Example 1001] ({CH2CO}-Y[NMeA]NP[Dap](Deoxycholoyl)L[Hyp]W[Dab](Chenodeoxycholyl)[Trp(1-CH2CO2Me)][NMeNle][NMeNle]LCG-NH2; thioether N-14), for which the IC50 stood at 9.5 nM. With `CCCC[C@H]1C(=O)N(C)[C@@H](CCCC)C(=O)N[C@@H](CC(C)C)C(=O)N[C@H](C(=O)NCC(N)=O)CSCC(=O)N[C@@H](Cc2ccc(O)cc2)C(=O)N(C)[C@@H](C)C(=O)N[C@@H](CC(N)=O)C(=O)N2CCC[C@H]2C(=O)N[C@@H](CNC(=O)CC[C@@H](C)[C@H]2CC[C@H]3[C@@H]4CC[C@@H]5C[C@H](O)CC[C@]5(C)[C@H]4C[C@H](O)[C@]23C)C(=O)N[C@@H](CC(C)C)C(=O)N2C[C@H](O)C[C@H]2C(=O)N[C@@H](Cc2c[nH]c3ccccc23)C(=O)N[C@@H](CCNC(=O)CC[C@@H](C)[C@H]2CC[C@H]3[C@@H]4[C@H](O)C[C@@H]5C[C@H](O)CC[C@]5(C)[C@H]4CC[C@]23C)C(=O)N[C@@H](Cc2cn(CC(=O)O)c3ccccc23)C(=O)N1C` [Example 1002] ({CH2CO}-Y[NMeA]NP[Dap](Deoxycholoyl)L[Hyp]W[Dab](Chenodeoxycholyl)[Trp(1-CH2COOH)][NMeNle][NMeNle]LCG-NH2; thioether N-14) the figure was 11 nM; with `CCCC[C@H]1C(=O)N(C)[C@@H](CCCC)C(=O)N[C@@H](CC(C)C)C(=O)N[C@H](C(=O)NCC(N)=O)CSCC(=O)N[C@@H](Cc2ccc(O)cc2)C(=O)N(C)[C@@H](C)C(=O)N[C@@H](CC(N)=O)C(=O)N2CCC[C@H]2C(=O)N[C@@H](CNC(=O)CC[C@@H](C)[C@H]2CC[C@H]3[C@@H]4CC[C@@H]5C[C@H](O)CC[C@]5(C)[C@H]4C[C@H](O)[C@]23C)C(=O)N[C@@H](CC(C)C)C(=O)N2C[C@H](O)C[C@H]2C(=O)N[C@@H](Cc2c[nH]c3ccccc23)C(=O)N[C@@H](CCNC(=O)CC[C@@H](C)[C@H]2CC[C@H]3[C@@H]4CC[C@@H]5C[C@H](O)CC[C@]5(C)[C@H]4CC(O)[C@]23C)C(=O)N[C@@H](Cc2cn(CC(=O)OC)c3ccccc23)C(=O)N1C` (some centres unmarked) [Example 1003] ({CH2CO}-Y[NMeA]NP[Dap](Deoxycholoyl)L[Hyp]W[Dab](X36)[Trp(1-CH2CO2Me)][NMeNle][NMeNle]LCG-NH2; thioether N-14), above 10000 nM. With `CCCC[C@H]1C(=O)N(C)[C@@H](CCCC)C(=O)N[C@@H](CC(C)C)C(=O)N[C@H](C(=O)NCC(N)=O)CSCC(=O)N[C@@H](Cc2ccc(O)cc2)C(=O)N(C)[C@@H](C)C(=O)N[C@@H](CC(N)=O)C(=O)N2CCC[C@H]2C(=O)N[C@@H](CNC(=O)CC[C@@H](C)[C@H]2CC[C@H]3[C@@H]4CC[C@@H]5C[C@H](O)CC[C@]5(C)[C@H]4CC[C@]23C)C(=O)N[C@@H](CC(C)C)C(=O)N2C[C@H](O)C[C@H]2C(=O)N[C@@H](Cc2c[nH]c3ccccc23)C(=O)N[C@@H](CCNC(=O)CC[C@@H](C)[C@H]2CC[C@H]3[C@@H]4CC[C@@H]5C[C@H](O)CC[C@]5(C)[C@H]4CC[C@]23C)C(=O)N[C@@H](Cc2cn(CC(=O)OC)c3ccccc23)C(=O)N1C` [Example 1004] ({CH2CO}-Y[NMeA]NP[Dap](Lithocholoyl)L[Hyp]W[Dab](Lithocholoyl)[Trp(1-CH2CO2Me)][NMeNle][NMeNle]LCG-NH2; thioether N-14) the figure was above 10000 nM. With `CCCC[C@H]1C(=O)N(C)[C@@H](CCCC)C(=O)N[C@@H](CC(C)C)C(=O)N[C@H](C(=O)NCC(N)=O)CSCC(=O)N[C@@H](Cc2ccc(O)cc2)C(=O)N(C)[C@@H](C)C(=O)N[C@@H](CC(N)=O)C(=O)N2CCC[C@H]2C(=O)N[C@@H](CNC(=O)CC[C@@H](C)[C@H]2CC[C@H]3[C@@H]4[C@H](O)C[C@@H]5C[C@H](O)CC[C@]5(C)[C@H]4CC[C@]23C)C(=O)N[C@@H](CC(C)C)C(=O)N2C[C@H](O)C[C@H]2C(=O)N[C@@H](Cc2c[nH]c3ccccc23)C(=O)N[C@@H](CCNC(=O)CC[C@@H](C)[C@H]2CC[C@H]3[C@@H]4[C@H](O)C[C@@H]5C[C@H](O)CC[C@]5(C)[C@H]4CC[C@]23C)C(=O)N[C@@H](Cc2cn(CC(=O)OC)c3ccccc23)C(=O)N1C` [Example 1005] ({CH2CO}-Y[NMeA]NP[Dap](Chenodeoxycholyl)L[Hyp]W[Dab](Chenodeoxycholyl)[Trp(1-CH2CO2Me)][NMeNle][NMeNle]LCG-NH2; thioether N-14) the figure was 8400 nM. As to `CCCC[C@H]1C(=O)N(C)[C@@H](CCCC)C(=O)N[C@@H](CC(C)C)C(=O)N[C@H](C(=O)NCC(N)=O)CSCC(=O)N[C@@H](Cc2ccc(O)cc2)C(=O)N(C)[C@@H](C)C(=O)N[C@@H](CC(N)=O)C(=O)N2CCC[C@H]2C(=O)N[C@@H](CNC(=O)CC[C@@H](C)[C@H]2CC[C@H]3[C@@H]4[C@@H](O)C[C@@H]5C[C@H](O)CC[C@]5(C)[C@H]4CC[C@]23C)C(=O)N[C@@H](CC(C)C)C(=O)N2C[C@H](O)C[C@H]2C(=O)N[C@@H](Cc2c[nH]c3ccccc23)C(=O)N[C@@H](CCNC(=O)CC[C@@H](C)[C@H]2CC[C@H]3[C@@H]4[C@@H](O)C[C@@H]5C[C@H](O)CC[C@]5(C)[C@H]4CC[C@]23C)C(=O)N[C@@H](Cc2cn(CC(=O)OC)c3ccccc23)C(=O)N1C` [Example 1006] ({CH2CO}-Y[NMeA]NP[Dap](Ursodeoxycholyl)L[Hyp]W[Dab](Ursodeoxycholyl)[Trp(1-CH2CO2Me)][NMeNle][NMeNle]LCG-NH2; thioether N-14), the IC50 is above 10000 nM.

Take `CCCC[C@H]1C(=O)N(C)[C@@H](CCCC)C(=O)N[C@@H](CC(C)C)C(=O)N[C@H](C(=O)NCC(N)=O)CSCC(=O)N[C@@H](Cc2ccc(O)cc2)C(=O)N(C)[C@@H](C)C(=O)N[C@@H](CC(N)=O)C(=O)N2CCC[C@H]2C(=O)N[C@@H](CNC(=O)CC[C@@H](C)[C@H]2CC[C@H]3[C@@H]4[C@H](O)C[C@@H]5C[C@H](O)CC[C@]5(C)[C@H]4C[C@H](O)[C@]23C)C(=O)N[C@@H](CC(C)C)C(=O)N2C[C@H](O)C[C@H]2C(=O)N[C@@H](Cc2c[nH]c3ccccc23)C(=O)N[C@@H](CCN)C(=O)N[C@@H](Cc2cn(CC(=O)OC)c3ccccc23)C(=O)N1C` [Example 1007] ({CH2CO}-Y[NMeA]NP[Dap](Cholyl)L[Hyp]W[Dab][Trp(1-CH2CO2Me)][NMeNle][NMeNle]LCG-NH2; thioether N-14): the IC50 came out at 6.8 nM. With `CCCC[C@H]1C(=O)N(C)[C@@H](CCCC)C(=O)N[C@@H](CC(C)C)C(=O)N[C@H](C(=O)NCC(N)=O)CSCC(=O)N[C@@H](Cc2ccc(O)cc2)C(=O)N(C)[C@@H](C)C(=O)N[C@@H](CC(N)=O)C(=O)N2CCC[C@H]2C(=O)N[C@@H](CNC(=O)CNC(=O)CC[C@@H](C)[C@H]2CC[C@H]3[C@@H]4[C@H](O)C[C@@H]5C[C@H](O)CC[C@]5(C)[C@H]4C[C@H](O)[C@]23C)C(=O)N[C@@H](CC(C)C)C(=O)N2C[C@H](O)C[C@H]2C(=O)N[C@@H](Cc2c[nH]c3ccccc23)C(=O)N[C@@H](CCN)C(=O)N[C@@H](Cc2cn(CC(=O)N(C)C)c3ccccc23)C(=O)N1C` [Example 1008] ({CH2CO}-Y[NMeA]NP[Dap]([Gly-Cholyl])L[Hyp]W[Dab][X29][NMeNle][NMeNle]LCG-NH2; thioether N-14) the figure was 14 nM.
